According to patent publication US11453674B2, “Heterocyclic compound, preparation method and use thereof in medicine” (SUZHOU SINOVENT PHARMACEUTICALS CO., LTD., priority 2019, dated 2022):

Assays:
rat hepatocytes = assay: Metabolite study in rat hepatocyte incubation system; format: in vitro ADME; conditions: 180 min incubation, LC-MS
Method: Example 28: Study on Metabolites of Compound in Human and Rat Hepatocyte Incubation System
1. Preparation of Stock and Working Solutions
Stock solution: A proper amount of test sample powders was dissolved in DMSO or other proper solvents, and the mixture was well mixed to give a stock solution (10 mM). The stock solution was preserved in a refrigerator at 4° C. for later use.
Working solution: The 10 mM stock solution was diluted to 1 mM working solution using acetonitrile, and well mixed for later use.
2. Preparation of Thawing Medium I
Williams' Medium E, glutamate, HEPES, fetal bovine serum albumin, human recombinant insulin, dexamethasone, and cell separation medium (Percoll™) were mixed in a ratio of 700:10:15:50:1:0.1:300 for use.
3. Preparation of Terminating Solution
An acetonitrile solution containing 0.1% formic acid was prepared as the terminating solution and preserved in a refrigerator at 4° C. for use.
4. Isolation and Preparation of Hepatocyte Suspension
The cryopreserved hepatocytes were thawed in a water bath at 37° C. for about 90 s, and quickly poured into the pre-heated isolating buffer. Residual hepatocytes were washed using the isolating buffer. Cells were combined and mixed well, and centrifuged at room temperature for 5 min at 100×g. The supernatant was discarded and the cells were resuspended using pre-heated William' Medium E. 20 μL of hepatocyte suspension was added into 100 μL of 0.4% Trypan blue. The cells were counted, and a cell viability over 70% was required. The hepatocyte density was adjusted to 1.25×10^6 cells/mL using William' Medium E.
5. Incubation and Treatment of Samples
1) The test compound working solution was pre-incubated (pre-heated) in a constant-temperature incubator at 37° C. for 10 min. 2 μL of the working solution (1 mM) was pipetted to a cell culture plate containing 160 μL of hepatocyte suspension at 1.25×10^6 cells/mL, and the mixture was well mixed. 38 μL of Williams' Medium E was added. The mixture was well mixed and incubated in an incubator (in a total volume of 200 μL), and the timer was started. For the blank control, […] of Williams' Medium E was added instead of the working solution. For 0-min samples, 400 μL of acetonitrile (containing 0.1% formic acid) was added, followed by the working solution and Williams' Medium E.
2) After 180 min of incubation, the samples were measured for the cell viability. Then 400 μL of acetonitrile (containing 0.1% formic acid) solution was added to terminate the reaction.
3) After the reaction was terminated, the plate was shaken on a shaker at 300 rpm for 10 min, followed by centrifugation at least 10000×g for at least 10 min. After centrifugation, the supernatant was all transferred to centrifuge tubes and dried with nitrogen.
4) The residues were re-dissolved in a suitable solvent, and centrifuged at least 10000×g for at least 15 min at room temperature. The supernatant was transferred to a sample analysis plate for LC-MS analysis.
5) The methodology for 7-ethoxycoumarin (30 μM) was the same as that of test samples. Samples of the test compounds after incubation were used for metabolite assay only when the target metabolite was detected in the positive control sample. Otherwise, the above experiment should be repeated.
6. Data Acquisition and Analysis […]

[1] = Pharmacokinetics in male SD rats (i.v. and p.o.); format: in vivo; conditions: Sprague-Dawley (SD), rat, plasma, po, p.o. 10 mg/kg vs i.v. 1 mg/kg
Method: Example 29: Pharmacokinetics
Methodology for pharmacokinetics of compounds in rats:
1. Male SD rats were acclimatized in the animal room for 7 days after arrival.
2. Six SD rats were randomized into 2 groups, with 3 animals in each group. One group was administered by oral gavage (p.o.), and the other group was treated via tail vein injection (i.v.). Rats in the p.o. group were deprived of food overnight before administration.
3. After administration, about 200 μL of blood was collected from the orbital venous plexus at various time points.
4. The collected blood samples were centrifuged at 12000 rpm for 5 min at 4° C., and then the upper plasma samples were collected and preserved in a refrigerator at −20° C.
5. The procedures were summarized as follows:
6. LC-MS/MS (UPLC-MS/MS: liquid chromatography Waters Acquity UPLC (USA) and mass spectrometry 5500 Q Trap (Applied Biosystem/MDS SCIEX) or HPLC-MS\MS: liquid chromatography Agilent 1200 series (USA) and mass spectrometry API 4000 (Applied Biosystem/MDS SCIEX)) were used to determine the concentration of the compound in the plasma.
The pharmacokinetic parameters were calculated using the pharmacokinetic software WinNonlin [Model: Phoenix™ WinNonlin® 6.1; Manufacturer: Pharsight Corporation]. [Phoenix 1.1 User's Guide: p 251-p 300]

SMILES	toxic metabolites of benzbromarone type (rat hepatocytes)	bioavailability [1]
CCc1nc2ncc(F)cn2c1C(=O)c1cc(Br)c(O)c(Br)c1 [Example 4, (3,5-dibromo-4-hydroxyphenyl)(2-ethyl-6-fluoroimidazo[1,2-a]pyrimidin-3-yl)methanone]	not observed	> 30%
CCc1nc2ncc(C(F)(F)F)cn2c1C(=O)c1cc(Br)c(O)c(Br)c1 [Example 5, (3,5-dibromo-4-hydroxyphenyl)(2-ethyl-6-(trifluoromethyl)imidazo[1,2-a]pyrimidin-3-yl)methanone]	not observed	> 30%
CCc1nc2ncc(F)cn2c1C(=O)c1cc(Br)c(O)c(C#N)c1 [Example 14, 3-bromo-5-(2-ethyl-6-fluoroimidazo[1,2-a]pyrimidine-3-carbonyl)-2-hydroxybenzonitrile]	not observed	> 30%
CCc1nc2ncccn2c1C(=O)c1cc(Br)c(O)c(Br)c1 [Example 20, 2,6-dibromo-4-([2-ethylimidazo[1,2-a]pyrimidin-3-yl]carbonyl) phenol]	not observed	> 30%
CCc1nc2cc(Cl)ncn2c1C(=O)c1cc(Br)c(O)c(Br)c1 [Example 21, (7-chloro-2-ethylimidazo[1,2-f]pyrimidin-3-yl)(3,5-dibromo-4-hydroxyphenyl)methanone]	not observed	> 30%
